Laboratory results: patent publication US12721835B2, “Anticoccidial composition comprising violacein, and use thereof” (CJ CHEILJEDANG CORPORATION, priority 2020, dated 2026)

Tests used:
Eimeria acervulina = assay: Protozoan (sporozoite) direct killing effect; assay type: cell-based; settings: tested 1 to 500 ppm, vs PBS control
Protocol: (§1) In the present example, protozoan (sporozoite) direct killing ability evaluation was conducted against 3 representative Eimeria kinds known to be infected in most farms (E. tenella, E. acervulina, E. maxima).
(§2) A certain amount of oocysts of each coccidial protozoan was put in a tube containing glass beads and pulverized, and then to remove the crushed oocyst cell wall and other debris, internal sporocysts were purified using the percoll density gradient, and washed with PBS solution. A reagent comprising sodium taurocholic acid (Sigma aldrich, USA) and trypsin (Gibco, USA), respectively, was treated to sporocysts of Eimeria tenella, Eimeria acervulina and Eimeria maxima for excystation of the internal sporozoites, and they were incubated, and then they were washed with PBS solution once and the protozoa were obtained.
(§3) After reacting the violacein and anticoccidial agents, salinomycin, diclazuril and gallic acid (hereinafter, material) with 3 kinds of Eimeria protozoa at various concentrations of 1 to 500 ppm, respectively, only alive protozoa (sporozoites) were counted through microscopic observation. […]

Eimeria tenella [1] = assay: Protozoan (sporozoite) direct killing effect; assay type: cell-based; settings: tested 1 to 500 ppm, vs PBS control
Protocol: as §1, §2, §3

Eimeria maxima = assay: Protozoan (sporozoite) direct killing effect; assay type: cell-based; settings: tested 1 to 500 ppm, vs PBS control
Protocol: as §1, §2, §3

[2] = system: Eimeria tenella, Eimeria acervulina, and Eimeria maxima; assay: In vivo anticoccidial activity upon complex inoculation of 3 kinds of protozoa (broilers, formulated feed); design: Oocyst index: scale not given here; settings: 3 kinds infection; for Lesion index: lesion score x 10; for ACI: out of 200 points; for Lesion score: sum of duodenum, jejunum and appendix; for RWG(%): vs non-infected negative control
Protocol: An in vivo anticoccidial efficacy evaluation test was performed in an animal experiment facility in Chungcheongnam-do, South Korea. One-day-old male Ross broilers were individually weighed and randomly divided into groups to use in an experiment. Matters and conditions for experimental design were described in Table 5.
A breeding farm was managed according to the Korean poultry breeding management guidelines. Cages and the breeding farm were cleaned and disinfected before starting the test. The temperature of […] and the humidity of 40 to 50% of the breeding farm were maintained, and it was continuously monitored.
The feed was mixed in Neobase, and each material (salinomycin (Cheilbio Cheilsalino-60 product), violacein (CJ Cheiljedang)) was added to the feed, respectively, at a concentration described in Table 6 below to be self-mixed. Antibiotics and supplements were not used in general feed and mixed feed, and no anticoccidial agent other than each material was added. Broilers were fed ad libitum throughout the experiment period. After putting 8 1-day-age broilers in cages randomly placed for each of the control group or test group and breeding, general feed (Al-choi product) was fed for 7 days, and then the mixed feed prepared above was ingested by dividing by control group or test group.
The feed formulation administered to the control group (negative control group or positive control group) and test group and whether coccidiosis was induced by three kinds of protozoa were described in Table 6 below.
Coccidiosis induction was performed by oral inoculation (challenge inoculation) in an oral tube type of 10,000, 50,000, 50,000 oocysts (eggs) with over 90% mature (sporulation) Eimeria tenella, Eimeria acervulina, and Eimeria maxima per one individual to 14-day-old broilers.
The anticoccidial efficacy by test group designed in Example 2-2 above was shown as an anticoccidial index (ACI), and the anticoccidial index was calculated by the similar method to Example 1-3 above. However, in the present example, the protozoa of Eimeria tenella, Eimeria acervulina, and Eimeria maxima were challenge inoculated, so the lesion score was calculated by summing the scores for each of the duodenum, jejunum and appendix, respectively, differently from Example 1-3.

Eimeria tenella [3] = assay: Intracellular protozoan propagation inhibition in MDBK cells (ITS-1 PCR); assay type: cell-based; settings: read-out: Intracellular protozoan propagation inhibitory effect (%)
Protocol: In the present example, using MDBK cell line which is a representative animal cell known to cause Eimeria infection and propagation, the inhibition ability of intracellular protozoan invasion and intracellular protozoal propagation of the violacein was investigated.
100,000 MDBK cells (purchased from ATCC) were aliquoted in a 24-well plate, and then incubated at a temperature of 37° C. for 12 hours. The protozoan of Eimeria tenella was obtained similar to the method of Example 3 above. 200,000 protozoa per one well were added to wells in which cells were aliquoted, and cultured at a temperature of 41° C. for 24 hours, and then the cells were washed using PBS solution twice to remove protozoa which were not attached to the cells. Each material (violacein and anticoccidial agents, salinomycin, diclazuril and gallic acid) was treated to the cells by concentration, and further cultured at a temperature of 41° C. for 24 hours. A negative control group is a MDBK cell infected by protozoa, and a positive control group means a group in which salinomycin and diclazuril solution was incubated with the Eimeria tenella protozoan. After removing the cells and protozoa inside the cells through pipetting, DNA was extracted from the cells, and PCR was performed using E. tenella ITS-1 (Internal transcribed spacer-1) gene-specific primers. The sequences of the used primers were described in Table 9 above.
The intracellular protozoan propagation inhibition rate (%) through treatment of the material was calculated by comparing Ct values in the material treatment groups compared to the negative control group, and the result was shown in FIG. 3 and Table 10.

`CC[C@@H](C(=O)[C@@H](C)[C@@H](O)[C@H](C)[C@@H]1O[C@@H]([C@@H](CC)C(=O)O)CC[C@@H]1C)[C@H]1O[C@]2(C=C[C@@H](O)[C@]3(CC[C@@](C)([C@H]4CC[C@](O)(CC)[C@H](C)O4)O3)O2)[C@H](C)C[C@@H]1C` [Salinomycin, salinomycin, reference compound] was tested, and the “Minimum concentration for killing 50% protozoa (sporozoites) (ppm)” value (Eimeria acervulina) was 250 ppm, the “Minimum concentration for killing 50% protozoa (sporozoites) (ppm)” value (Eimeria tenella [1]) was 500 ppm and the “Minimum concentration for killing 50% protozoa (sporozoites) (ppm)” value (Eimeria maxima) was 500 ppm. The “ADG(g/d) after challenge inoculation” value ([2]; feed 60 ppm) was 46.6 g/day, the Oocyst excretion amount/g ([2]; feed 60 ppm) was 540000 g⁻¹ and the Oocyst index ([2]; feed 60 ppm) was 20.0. The “Survival rate after challenge inoculation (%)” value (shortened to “Survival rate … (%)”) ([2]; feed 60 ppm) was 100%, the Lesion index ([2]; feed 60 ppm) was 55 and the ACI ([2]; feed 60 ppm) was 130. The Lesion score ([2]; feed 60 ppm) was 5.5, the “RWG(%)” value ([2]; feed 60 ppm) was 105.1% and the inhibition at 5 ppm (Eimeria tenella [3]; MDBK, 24 h) was 32.2%. For the same compound, the inhibition at 10 ppm (Eimeria tenella [3]; MDBK, 24 h) was 34.8%.

With `O=C1N=c2ccccc2=C1c1cc(-c2c[nH]c3ccc(O)cc23)[nH]c1O` [Violacein, 3-(2-(5-Hydroxyindol-3-yl)-5-oxo-2-pyrrolin-4-ylidene)-2-indolinone] the “Minimum concentration for killing 50% protozoa (sporozoites) (ppm)” value (Eimeria acervulina) was 3.9 ppm, the “Minimum concentration for killing 50% protozoa (sporozoites) (ppm)” value (Eimeria tenella [1]) was 0.63 ppm and the “Minimum concentration for killing 50% protozoa (sporozoites) (ppm)” value (Eimeria maxima) was 5 ppm. The “ADG(g/d) after challenge inoculation” value ([2]; feed 10 ppm) was 40.4 g/day, the Oocyst excretion amount/g ([2]; feed 10 ppm) was 680000 g⁻¹ and the Oocyst index ([2]; feed 10 ppm) was 31.4. For the same compound, the “Survival rate … (%)” value ([2]; feed 10 ppm) was 100%, the Lesion index ([2]; feed 10 ppm) was 51 and the ACI ([2]; feed 10 ppm) was 109. The Lesion score ([2]; feed 10 ppm) was 5.1, the “RWG(%)” value ([2]; feed 10 ppm) was 91.1% and the “ADG(g/d) after challenge inoculation” value ([2]; feed 15 ppm) was 45.2 g/day. The Oocyst excretion amount/g ([2]; feed 15 ppm) was 380000 g⁻¹, the Oocyst index ([2]; feed 15 ppm) was 15.7 and the “Survival rate … (%)” value ([2]; feed 15 ppm) was 100%. It also gave a Lesion index ([2]; feed 15 ppm) of 31, an ACI ([2]; feed 15 ppm) of 155 and a Lesion score ([2]; feed 15 ppm) of 3.1. For the same compound, the “RWG(%)” value ([2]; feed 15 ppm) was 102.0%, the “ADG(g/d) after challenge inoculation” value ([2]; feed 20 ppm) was 42.1 g/day and the Oocyst excretion amount/g ([2]; feed 20 ppm) was 1.56e+06 g⁻¹. For the same compound, the Oocyst index ([2]; feed 20 ppm) was 22.9, the “Survival rate … (%)” value ([2]; feed 20 ppm) was 100% and the Lesion index ([2]; feed 20 ppm) was 40. For the same compound, the ACI ([2]; feed 20 ppm) was 132, the Lesion score ([2]; feed 20 ppm) was 4.0 and the “RWG(%)” value ([2]; feed 20 ppm) was 95%. The inhibition at 0.5 ppm (Eimeria tenella [3]; MDBK cells, 0.5 ppm, treated after invasion, 24 hours) was 53.7% and the inhibition at 1 ppm (Eimeria tenella [3]; MDBK cells, 1 ppm, treated after invasion, 24 hours) was 45.8%.
